These results are taken from ChEMBL document CHEMBL5058564, “EUbOPEN Chemogenomics Library 2 (Incucyte)” (2022).

What all share (format): toxicity, cell-based
The test system of one data set is HEK-293T. In words: Incucyte cell viability with HEK293T. The note with it: human, 10 µM, compound concentration 10 uM.
A further data set has as its system U2OS. The data set is described as follows: Incucyte cell viability with U2OS. Particulars: human, 10 µM, compound concentration 10 uM.
The subject of another data set is Fibroblast. The data set is described as follows: Incucyte cell viability with human fibroblast. Particulars: 10 µM, compound concentration 10 uM.
The mark [1] stands for this setting: 6 h, replicate number 1, timepoint 6 hours.
Where [2] appears, read: 12 h, replicate number 1, timepoint 12 hours.
Setting [3] is: 18 h, replicate number 1, timepoint 18 hours.
Setting [4] is: 24 h, replicate number 1, timepoint 24 hours.
The mark [5] stands for this setting: 0 h, replicate number 2, timepoint 0 hours.
Where [6] appears, read: 12 h, replicate number 2, timepoint 12 hours.
The mark [7] stands for this setting: 0 h, replicate number 1, timepoint 0 hours.
Setting [8] is: 6 h, replicate number 2, timepoint 6 hours.
Where [9] appears, read: 24 h, replicate number 2, timepoint 24 hours.
Setting [10] is: 18 h, replicate number 2, timepoint 18 hours.
Also: unitless GR value; below 1 slowed growth and below 0 cell loss.

Take `COc1c(Nc2ccc(S(C)(=O)=O)nc2C)ncnc1OC1CCN(C(=O)OC(C)C)CC1` [ADP-597]: the “Growth Rate” value with HEK-293T (setting [1]) came out at 0.29; in the data set with HEK-293T (setting [2]) it was 0.45; in the data set with HEK-293T (setting [3]), 0.51; with HEK-293T (setting [4]), 0.74; in the data set on U2OS (setting [3]), 0.98; with U2OS (setting [4]), 1. The “Growth Rate” value with Fibroblast (setting [5]) is on record as 0.94; in the data set with Fibroblast (setting [1]), 0.72; in the data set with Fibroblast (setting [2]) it was 0.53; with Fibroblast (setting [6]), 0.7; in the data set with Fibroblast (setting [3]) it was 0.34; in the data set with Fibroblast (setting [4]), 0.88.
As for `O=C(NCCNCC(O)COc1ccc(O)cc1)N1CCOCC1.O=C(NCCNCC(O)COc1ccc(O)cc1)N1CCOCC1.O=C(O)/C=C/C(=O)O` (configuration not stated) [XAMOTEROL FUMARATE], the “Growth Rate” value is on record as 0.82 in the data set with HEK-293T (setting [7]); 0.64 with HEK-293T (setting [8]); 0.95 in the data set on HEK-293T (setting [6]); 0.31 with U2OS (setting [7]); -1 in the data set on U2OS (setting [5]); -0.24 in the data set with Fibroblast (setting [7]). Also, the “Growth Rate” value with Fibroblast (setting [5]) is reported as -0.01.
For the compound `Nc1nccc(-c2ccn3c(N)nccc23)n1`, the “Growth Rate” value was -0.7 in the data set with HEK-293T (setting [7]); 0.28 with HEK-293T (setting [5]); 0.93 with HEK-293T (setting [3]); 0.76 in the data set on HEK-293T (setting [4]); 1 in the data set on HEK-293T (setting [9]); 0.63 in the data set with U2OS (setting [7]). Also, the “Growth Rate” value in the data set with U2OS (setting [5]) came out at 0.39; with U2OS (setting [8]), 0.89; with U2OS (setting [6]), 0.92; with U2OS (setting [10]) it was 0.85; with U2OS (setting [4]), 0.98; in the data set with U2OS (setting [9]), 0.82. Moreover, the “Growth Rate” value is recorded as -0.59 in the data set with Fibroblast (setting [7]); -0.24 in the data set on Fibroblast (setting [5]); 0.84 in the data set with Fibroblast (setting [6]); 0.76 with Fibroblast (setting [10]); 0.72 in the data set on Fibroblast (setting [9]).
With `O=c1c2cccn2c2ccccc2n1CCCN1CCC(c2ccc(Cl)cc2)CC1`, the “Growth Rate” value in the data set on HEK-293T (setting [8]) was 0.34; with HEK-293T (setting [2]), 0.61; in the data set on HEK-293T (setting [6]), 0.39; in the data set on HEK-293T (setting [3]) it was 0.56; in the data set with HEK-293T (setting [10]), 0.55; in the data set with HEK-293T (setting [4]) it was 0.76. Moreover, the “Growth Rate” value with HEK-293T (setting [9]) is recorded as 0.9; in the data set on U2OS (setting [5]), -1; in the data set on U2OS (setting [6]) it was 0.89; with U2OS (setting [10]), 0.89; in the data set on U2OS (setting [9]), 0.8; in the data set with Fibroblast (setting [1]), -0.55. Moreover, the “Growth Rate” value is on record as -0.88 in the data set with Fibroblast (setting [8]); -0.52 with Fibroblast (setting [2]); -0.58 with Fibroblast (setting [6]); -0.55 with Fibroblast (setting [3]); -0.28 in the data set on Fibroblast (setting [10]); -0.3 in the data set on Fibroblast (setting [4]). Moreover, in the data set with Fibroblast (setting [9]), the “Growth Rate” value was -0.26.
Take `Cc1ccccc1-c1cc(N2CCN(C)CC2)ncc1N(C)C(=O)C(C)(C)c1cc(C(F)(F)F)cc(C(F)(F)F)c1` [NETUPITANT]: the “Growth Rate” value in the data set on HEK-293T (setting [7]) was 0.83; in the data set on HEK-293T (setting [5]), 0.7; in the data set with HEK-293T (setting [2]) it was 0.84; in the data set with HEK-293T (setting [3]), 0.72; with HEK-293T (setting [10]) it was 0.92; in the data set with HEK-293T (setting [4]), 0.5. Further, the “Growth Rate” value is on record as 0.86 in the data set on HEK-293T (setting [9]); -0.52 in the data set with U2OS (setting [7]); -0.23 in the data set with Fibroblast (setting [7]); 0.68 in the data set with Fibroblast (setting [5]); 0.24 in the data set on Fibroblast (setting [1]); 0.63 in the data set on Fibroblast (setting [2]). For the same compound, the “Growth Rate” value in the data set on Fibroblast (setting [6]) is 0.31; in the data set with Fibroblast (setting [3]), 0.73; in the data set on Fibroblast (setting [10]) it was 0.71; in the data set with Fibroblast (setting [9]) it was 0.71.
As to `CC(C)Cc1ccc([C@@H](C)C(=O)NS(C)(=O)=O)cc1` [REPARIXIN], the “Growth Rate” value in the data set on HEK-293T (setting [5]) is 0.48; in the data set with HEK-293T (setting [2]), 0.78; in the data set with HEK-293T (setting [3]), 0.7; in the data set on HEK-293T (setting [10]) it was 0.83; in the data set on HEK-293T (setting [4]), 0.82; in the data set with U2OS (setting [7]) it was -0.7. Also, the “Growth Rate” value in the data set with U2OS (setting [5]) is on record as -1; in the data set on U2OS (setting [8]), 0.83; in the data set with U2OS (setting [6]), 0.88; in the data set with U2OS (setting [10]) it was 0.86; with U2OS (setting [9]), 0.93; in the data set with Fibroblast (setting [1]) it was 0.51. The “Growth Rate” value in the data set with Fibroblast (setting [8]) is listed as -0.08; with Fibroblast (setting [2]), 0.63; in the data set on Fibroblast (setting [6]) it was 0.66; in the data set with Fibroblast (setting [3]) it was 0.6; in the data set on Fibroblast (setting [10]) it was 0.65; in the data set with Fibroblast (setting [4]), 0.06. Besides, the “Growth Rate” value in the data set with Fibroblast (setting [9]) is recorded as 0.95.
As to `O=C(N[C@@H]1CC[C@@H](c2cccc(F)c2F)CN(CC(F)(F)F)C1=O)N1CCC(n2c(=O)[nH]c3ncccc32)CC1` [TELCAGEPANT], the “Growth Rate” value in the data set on HEK-293T (setting [1]) is recorded as 0.32; in the data set with HEK-293T (setting [8]) it was 0.77; with HEK-293T (setting [2]) it was 0.66; with HEK-293T (setting [6]), 0.94; in the data set with HEK-293T (setting [3]), 0.54; with HEK-293T (setting [10]) it was 0.98. Moreover, the “Growth Rate” value is given as 0.81 with HEK-293T (setting [4]); -1 in the data set with U2OS (setting [5]); 0.8 in the data set with U2OS (setting [1]); 0.98 in the data set with U2OS (setting [10]); 0.86 with U2OS (setting [4]); 0.95 with U2OS (setting [9]). The “Growth Rate” value in the data set with Fibroblast (setting [5]) is listed as 0.95; with Fibroblast (setting [1]), 0.18; in the data set on Fibroblast (setting [8]), -0.28; in the data set with Fibroblast (setting [2]) it was 0.01; with Fibroblast (setting [6]), 0.39; in the data set on Fibroblast (setting [3]) it was 0.11. The “Growth Rate” value was 0.66 with Fibroblast (setting [10]), 0.22 in the data set on Fibroblast (setting [4]) and 0.72 in the data set with Fibroblast (setting [9]).
`Cc1ccc(/C(=C\CN2CCCC2)c2ccccn2)cc1` [TRIPROLIDINE]: the “Growth Rate” value with HEK-293T (setting [8]) is listed as 0.8; with U2OS (setting [1]), -0.54; with U2OS (setting [8]) it was 0.77; in the data set on U2OS (setting [2]), 0.38; with U2OS (setting [6]) it was 0.88; in the data set with U2OS (setting [3]), 0.76. In addition, the “Growth Rate” value stood at 0.96 in the data set with U2OS (setting [10]); 0.83 with U2OS (setting [4]); 0.94 with U2OS (setting [9]); 0.54 with Fibroblast (setting [7]); 0.74 with Fibroblast (setting [5]); 0.96 in the data set on Fibroblast (setting [1]). In addition, the “Growth Rate” value came out at 0.98 with Fibroblast (setting [3]) and 0.88 in the data set on Fibroblast (setting [4]).
On to `CCc1nn2c(C)cc(C)nc2c1Cc1ccc(-c2nnc(C3CCNCC3)o2)cc1`, for which the “Growth Rate” value with HEK-293T (setting [5]) is recorded as 0.38; in the data set with HEK-293T (setting [1]), 0.9; in the data set with HEK-293T (setting [3]) it was 0.88; in the data set on U2OS (setting [5]) it was 0.09; in the data set on Fibroblast (setting [1]) it was -0.59; in the data set on Fibroblast (setting [8]), 0.22. For the same compound, the “Growth Rate” value is given as -0.55 in the data set on Fibroblast (setting [2]); 0.37 with Fibroblast (setting [6]); -0.43 in the data set with Fibroblast (setting [3]); 0.56 in the data set on Fibroblast (setting [10]); -0.25 in the data set with Fibroblast (setting [4]); 0.65 in the data set with Fibroblast (setting [9]).
As to `CC(C)[C@H](C(=O)Nc1ccc(C(=O)NO)cc1)c1ccccc1` [AR-42], the “Growth Rate” value with HEK-293T (setting [7]) is on record as 0.33; with HEK-293T (setting [5]) it was 0; in the data set with HEK-293T (setting [2]), 0.65; with HEK-293T (setting [6]), 0.04; in the data set with HEK-293T (setting [3]), 0.28; with HEK-293T (setting [4]), 0.18. The “Growth Rate” value is given as 0.23 in the data set with HEK-293T (setting [9]); -0.37 in the data set on U2OS (setting [7]); 0.37 with U2OS (setting [5]); 0.34 in the data set with U2OS (setting [1]); 0.99 with U2OS (setting [8]); 0.5 in the data set on U2OS (setting [2]). Further, the “Growth Rate” value in the data set with U2OS (setting [6]) was 0.71; in the data set with U2OS (setting [3]) it was 0.3; in the data set with U2OS (setting [10]), 0.56; in the data set on U2OS (setting [4]), 0.39; in the data set on U2OS (setting [9]), 0.42; with Fibroblast (setting [7]), 0.24. Moreover, in the data set with Fibroblast (setting [5]), the “Growth Rate” value amounted to 0.
As to `Cc1noc(-c2ccc(-c3ccc(CC(=O)O)cc3)cc2)c1NC(=O)O[C@H](C)c1ccccc1Cl`, the “Growth Rate” value in the data set with HEK-293T (setting [2]) stood at 0.85; in the data set with HEK-293T (setting [3]), 0.67; in the data set with HEK-293T (setting [4]) it was 0.81; with U2OS (setting [8]) it was 0.82; in the data set on U2OS (setting [6]), 0.92; in the data set with U2OS (setting [10]), 0.93. The “Growth Rate” value was 0.95 in the data set on U2OS (setting [9]), -0.69 with Fibroblast (setting [7]) and 0.54 in the data set on Fibroblast (setting [5]).
Turning to `O=C(O)c1nc2ccccc2c2[nH]c3c(I)cccc3c12`, the “Growth Rate” value with HEK-293T (setting [7]) is reported as 0.01; with HEK-293T (setting [5]), 0.84; with HEK-293T (setting [6]), 0.75; in the data set on HEK-293T (setting [10]) it was 0.78; in the data set with U2OS (setting [5]), -1; in the data set on U2OS (setting [1]), 0.56. Also, the “Growth Rate” value is recorded as 0.85 in the data set on U2OS (setting [6]); 0.93 in the data set on U2OS (setting [3]); 0.85 in the data set with U2OS (setting [10]); 0.91 in the data set on U2OS (setting [9]); -0.96 in the data set on Fibroblast (setting [7]); 0.92 in the data set on Fibroblast (setting [5]).
